Test results: ChEMBL document CHEMBL3243982, “Synthesis of pyrimido[5,4-c]quinolines and related quinolines as potential antimalarials” (J Med Chem, 1978)
Activity calls are given as the source filed them. No cut-off for these calls is given here.

System: Plasmodium berghei
Test: Antimalarial activity against blood-induced Plasmodium berghei infected in mouse at 640 mg/kg
Type: functional, organism-based
Set-up: dose 640 mg/kg

Compound | Activity
CCNCc1c(C)nc2ccc(OC)cc2c1Nc1cccc(Cl)c1 | inactive
CCN1Cc2c(/C=C/c3ccccc3)nc3ccc(OC)cc3c2N(c2cccc(Cl)c2)C1 | inactive
CCNCc1c(C)[nH]c2ccc(C)cc2c1=O | inactive
CCN1Cc2c(C)nc3ccc(C)cc3c2N(c2cccc(Cl)c2)C1 | inactive
CCN1Cc2c(C)nc3ccc(OC)cc3c2N(c2cccc(Cl)c2)C1 | inactive
CCN(CC)Cc1c(C)[nH]c2cc(Cl)ccc2c1=O | inactive
CCNCc1c(C)[nH]c2ccc(OC)cc2c1=O | inactive

System: Plasmodium gallinaceum
Test: Antimalarial activity against Plasmodium gallinaceum at 320 mg/kg by sporozoite-induced chick test
Type: functional, organism-based
Set-up: dose 320 mg/kg

Compound | Activity
CCN1Cc2c(/C=C/c3ccccc3)nc3ccc(OC)cc3c2N(c2cccc(Cl)c2)C1 | inactive
